The values below come from paper PMC5412352 (International Journal of Molecular Sciences, 2017).

Data set [1] deals with T1, hGhrR (COS7 cells stably transfected with hGhrR) (Homo sapiens, UniProt Q92847).
T1 construct: expressed in transfected cells
Nature of the data set: Inositol phosphate accumulation assay, antagonistic potency with 10^-8 M ghrelin. Format: cell-based. The method, then: Antagonistic properties at the hGhrR
antagonistic potency in an inositol phosphate accumulation assay (Table S1). The receptor was
Table S1. Inositol phosphate accumulation assay to determine antagonistic potencies of candidate
Compounds were analyzed by inositol phosphate accumulation in COS7 cells stably

Data set [2] is described as follows: HPLC-based chromatographic hydrophobicity index on immobilized artificial membranes (CHI IAM). Format: physicochemical. The conditions noted are these: IAM PC DD2 column, acetonitrile / 50 mM ammonium acetate gradient. The text has this:
Physicochemical properties of a drug such as lipophilicity and non-specific binding to membranes and plasma proteins are crucial parameters of a potential radiotracer, in particular if it is supposed to pass the blood brain barrier (BBB). The lipophilicity (logD7.4) was estimated using the commercially available ACD/Labs-12.5 software and the non-specific binding was estimated by the high-performance liquid chromatography (HPLC)-based hydrophobicity index at immobilized artificial membranes (CHI IAM) for seven fluorine substituted candidate molecules and (S)-13 without fluorine (Table 3).
The chromatographic hydrophobicity index on immobilized artificial membranes (CHI IAM) was experimentally determined by a HPLC method described by Valko and co-workers using a IAM PC DD2 column (100 × 4.6 mm, […], Regis Technologies, IL, USA), a gradient of acetonitrile, and 50 mM ammonium acetate as eluent and acetanilide, acetophenone, 1,4-dinitrobenzene, anisole propiophenone, valerophenone, and octanophenone as references.

The next data set relates to adrenergic α1ARs. Nature of the data set: Commercial screening by Eurofins Panlabs. The class given is binding.
Another data set concerns adrenergic α1BRs. Nature of the data set: Commercial screening by Eurofins Panlabs. Format: binding.
For a further data set, the target named is T2, chemokine CXCR3Rs (Homo sapiens, UniProt P49682).
T2 construct: Eurofins Panlabs (Taiwan), contract screening
T2 sequence (P49682 1-368): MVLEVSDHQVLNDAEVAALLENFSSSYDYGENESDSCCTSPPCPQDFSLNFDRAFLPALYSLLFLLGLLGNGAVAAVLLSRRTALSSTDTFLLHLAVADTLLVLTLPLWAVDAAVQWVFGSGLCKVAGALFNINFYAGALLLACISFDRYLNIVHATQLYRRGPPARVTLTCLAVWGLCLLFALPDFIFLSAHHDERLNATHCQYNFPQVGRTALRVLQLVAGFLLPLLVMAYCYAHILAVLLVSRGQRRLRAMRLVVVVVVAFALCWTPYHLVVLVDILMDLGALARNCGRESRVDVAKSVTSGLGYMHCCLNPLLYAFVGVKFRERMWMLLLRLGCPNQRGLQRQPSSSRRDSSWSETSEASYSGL
Nature of the data set: Commercial screening by Eurofins Panlabs. The class given is binding.

Another data set has as its target T3, muscarinic M1Rs (Homo sapiens, UniProt P11229).
T3 construct: Eurofins Panlabs (Taiwan), contract screening
T3 sequence (P11229 1-460): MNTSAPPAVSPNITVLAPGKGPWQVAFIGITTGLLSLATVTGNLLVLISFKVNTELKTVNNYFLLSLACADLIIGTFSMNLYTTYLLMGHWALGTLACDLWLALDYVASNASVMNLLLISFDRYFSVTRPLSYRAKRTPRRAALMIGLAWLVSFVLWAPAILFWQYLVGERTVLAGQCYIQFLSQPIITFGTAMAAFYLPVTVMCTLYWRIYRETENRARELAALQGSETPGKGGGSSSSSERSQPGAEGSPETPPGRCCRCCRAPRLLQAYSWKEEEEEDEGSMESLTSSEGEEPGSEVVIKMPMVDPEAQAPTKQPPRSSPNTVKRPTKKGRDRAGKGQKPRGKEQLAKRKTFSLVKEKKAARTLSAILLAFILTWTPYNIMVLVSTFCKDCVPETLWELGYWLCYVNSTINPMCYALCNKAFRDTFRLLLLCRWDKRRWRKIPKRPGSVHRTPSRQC
Nature of the data set: Commercial screening by Eurofins Panlabs. Format: binding.

Another data set addresses T4, muscarinic M2Rs (Homo sapiens, UniProt P08172).
T4 construct: Eurofins Panlabs (Taiwan), contract screening
T4 sequence (P08172 1-466): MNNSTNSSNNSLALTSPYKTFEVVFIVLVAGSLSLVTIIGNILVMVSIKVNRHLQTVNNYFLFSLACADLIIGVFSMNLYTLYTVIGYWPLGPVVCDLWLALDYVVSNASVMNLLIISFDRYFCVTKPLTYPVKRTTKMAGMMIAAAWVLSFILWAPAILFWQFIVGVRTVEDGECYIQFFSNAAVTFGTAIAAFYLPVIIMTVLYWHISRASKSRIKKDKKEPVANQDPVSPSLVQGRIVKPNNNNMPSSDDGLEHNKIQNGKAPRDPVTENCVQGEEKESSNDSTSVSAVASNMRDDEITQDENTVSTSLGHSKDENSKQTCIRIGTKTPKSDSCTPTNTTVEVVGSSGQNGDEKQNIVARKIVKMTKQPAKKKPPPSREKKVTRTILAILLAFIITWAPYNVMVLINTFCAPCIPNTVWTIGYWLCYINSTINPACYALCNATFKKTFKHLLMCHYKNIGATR
Nature of the data set: Commercial screening by Eurofins Panlabs. Format: binding.

The target in a further data set is T5, serotonin 5-HT2BRs (Homo sapiens, UniProt P41595).
T5 construct: Eurofins Panlabs (Taiwan), contract screening
Nature of the data set: Commercial screening by Eurofins Panlabs. Format: binding.

The next data set deals with GhrR. The arrangement: method as in PMID 22342626. The conditions noted are these: previously published value; cited from earlier work.
Data set [3] deals with hGhrR (COS7 cells stably expressing hGhrR-eYFP) (Homo sapiens, UniProt Q92847). Nature of the data set: cell-based.
Procedure: For that purpose, the inositol phosphate accumulation assay was used [43, 44].
Briefly, 60,000 to 80,000 cells/well of COS7 cells, stably expressing the fusion protein hGhrR-eYFP, were seeded in 48-well plates in Dulbecco’s modified Eagle’s medium (DMEM) with 10% fetal calf serum (FCS) and 0.4 mg/mL hygromycin B. The next day, the cells were labeled with [2-^3H]-myo-inositol (2 µCi/mL, PerkinElmer). […] Cell debris was removed and the supernatant purified on an anion-exchange resin (BioRad, Hercules, CA, USA). The obtained data were analyzed with GraphPad Prism 5.0 (GraphPad Software, San Diego, CA, USA). […] EC50/IC50 values were calculated from at least three independent experiments. Emax is defined as the difference between maximal and minimal effect in presence of the compound.
For data set [4], the target named is human GhrR (hGhrR-eYFP, HEK293 cell membranes) (Homo sapiens, UniProt Q92847). Nature of the data set: Competitive radioligand binding assay with [125I-His9]ghrelin at hGhrR membranes.
Procedure: Each concentration was tested in duplicate. The membrane-bound radioligand was trapped on a Filtermat B (PerkinElmer) pre-soaked with 0.1% polyethylenimine in H2O by using a filtermat harvester (PerkinElmer). After drying for 20 min at 55 °C, a Meltilex scintillation sheet (PerkinElmer) was melted onto the filtermat and the samples were counted in a Microbeta scintillation counter (PerkinElmer).

“Also recorded” adds a separate entry of the source.

hGhrR (COS7 cells stably expressing hGhrR-eYFP), sequence (Q92847 whole entry): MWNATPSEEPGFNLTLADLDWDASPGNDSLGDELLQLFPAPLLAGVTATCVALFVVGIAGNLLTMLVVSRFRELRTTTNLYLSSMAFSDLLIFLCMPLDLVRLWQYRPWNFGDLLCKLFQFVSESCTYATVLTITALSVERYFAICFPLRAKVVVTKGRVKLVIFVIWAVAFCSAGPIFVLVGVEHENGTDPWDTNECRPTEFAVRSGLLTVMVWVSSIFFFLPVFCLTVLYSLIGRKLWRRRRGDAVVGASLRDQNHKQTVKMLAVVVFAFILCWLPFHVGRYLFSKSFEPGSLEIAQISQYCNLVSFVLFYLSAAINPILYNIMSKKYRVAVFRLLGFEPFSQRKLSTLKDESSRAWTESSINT
T1 sequence (Q92847 whole entry): as above
T5 sequence (P41595 whole entry): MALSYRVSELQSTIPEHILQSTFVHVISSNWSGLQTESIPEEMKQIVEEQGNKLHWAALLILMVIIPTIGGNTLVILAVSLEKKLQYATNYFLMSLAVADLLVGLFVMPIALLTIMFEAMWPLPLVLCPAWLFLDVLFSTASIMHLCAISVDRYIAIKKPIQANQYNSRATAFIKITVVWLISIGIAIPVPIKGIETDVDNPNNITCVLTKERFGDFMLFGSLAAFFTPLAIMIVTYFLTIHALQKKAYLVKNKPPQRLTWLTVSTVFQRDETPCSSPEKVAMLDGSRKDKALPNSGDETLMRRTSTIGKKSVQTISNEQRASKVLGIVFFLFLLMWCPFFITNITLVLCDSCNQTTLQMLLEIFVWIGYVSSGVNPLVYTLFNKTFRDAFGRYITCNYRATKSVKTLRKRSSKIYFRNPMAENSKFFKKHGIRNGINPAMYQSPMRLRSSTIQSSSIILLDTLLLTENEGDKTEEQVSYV
human GhrR (hGhrR-eYFP, HEK293 cell membranes), sequence (Q92847 whole entry): as the sequence (Q92847 whole entry) above

Regarding `Cc1nc2ccc(Oc3ccc(Br)cc3F)nc2c(=O)n1C[C@H]1CCCN(C(C)C)C1` [(S)-9, (S)-6-(4-Bromo-2-fluorophenoxy)-3-((1-isopropylpiperidin-3-yl)methyl)-2-methylpyrido[3,2-d]pyrimidin-4(3H)-one], the IC50 was 24.8 nM in [1] (5 min pre-stimulation with compound, then 10^-8 M ghrelin, read-out: IC50 (antagonistic potency)) and 2.19 nM in data set [4]. Further, the Emax is 38 ± 4% in data set [1] (COS-7, read-out: Emax (antagonistic efficacy)) and roughly 60% in data set [3] (COS-7, mean ± SEM, refers to ghrelin Emax as 100%, 0% = constitutive receptor activity). The “CHI IAM” value in data set [2] stood at 43.0. Besides, the “significant response (≥50% inhibition or stimulation)” value with adrenergic α1ARs, with adrenergic α1BRs, on chemokine CXCR3Rs, on muscarinic M1Rs, on muscarinic M2Rs and on serotonin 5-HT2BRs was “did not show significant responses; also recorded: did not show significant binding” in each case. Moreover, the Ki on GhrR was 0.01 nM. Besides, the EC50 was 0.7 nM in [3] (EC50, 2 h stimulation in absence of ghrelin, COS7-hGhrR) and 0.676 nM in data set [3] (pEC50, mean ± SEM, 2 h stimulation in absence of ghrelin).

In general, IC50 refers to the point on the concentration scale where inhibition reaches its midpoint. What is called Emax is the size of the effect at its maximum, as opposed to the concentration needed. What is called Ki is a measure of affinity in units of concentration, obtained from inhibition or displacement. As usually defined, the EC50 is the concentration that produces a half-maximal response. Higher therefore signals a less potent agent.
